Test results as given in ChEMBL document CHEMBL1201862, “PubChem BioAssay data set” (2004).
Activity calls are given as the source filed them. Cut-off read from the data, not from the text of the source, for most assays here: actives have a measured EC50 and inactives only a lower limit.

system: not listed separately; experiment: HEp-2 cell cytotoxicity, dose response, cytotoxicity control for RSV inhibitor project, HTS (AID 2410); assay type: functional; conditions: human respiratory syncytial virus

Row | SMILES | CC50
1 | COc1cc2c(cc1OC)C1(Nc3c-2c(Cc2ccccc2)nn3-c2ccccc2)C(=O)Nc2ccccc21 (centres undefined) | > 50 µM (active)

system: not listed separately; experiment: inhibitors of firefly luciferase expression or activity, dose response, H4 neuroglioma cells, luminescence (AID 1990); assay type: functional, cell-based; conditions: not given

Row | SMILES | EC50
2 | C=C(C)CN1CC[C@]23c4c5ccc(O)c4O[C@H]2c2[nH]c4ccccc4c2C[C@@]3(O)C1C5 | 13.7 µM (active)
3 | Nc1c(C(=O)NCc2ccc3c(c2)OCO3)nnn1CC(=O)Nc1ccc(Br)cc1 | > 120 µM (not active)
4 | Cc1ccc(NC(=O)c2ccc(S(=O)(=O)N3CCC(C)CC3)cc2)cc1 | > 120 µM (not active)
5 | CN(C)S(=O)(=O)c1ccc(Cl)c(-c2nnc3n2CCCCC3)c1 | > 120 µM (not active)
6 | Cc1nc2c(c(N3CCOCC3)n1)OCC(=O)N2 | 42.6 µM (active)
7 | Cc1cccc(NCCC#N)c1 | > 120 µM (not active)
8 | CCOC(=O)c1c(C)n[nH]c1NCc1ccccc1 | 26 µM (active)

system: Streptococcus sp. 'group A'; experiment: growth inhibition of control SK(-) GAS strain, dose response, counter-screen for streptokinase expression inhibitor project, luminescence, kanamycin, BacTiterGlo, confirmation (AID 1900); assay type: functional, organism-based; conditions: not given

Row | SMILES | EC50
9 | O=C(Nc1ccn(Cc2c(F)c(F)cc(F)c2F)n1)c1ccc(COc2ccc(Cl)cc2Cl)o1 | 36.3 µM (active)
10 | O=C(Cc1csc(NC(=O)Nc2cccc(Cl)c2)n1)NCc1ccccn1 | 7.28 µM (active)
11 | COc1cccc(-c2cc(C(F)(F)F)nc(N3CCC(C)CC3)n2)c1 | 5.93 µM (active)

system: not listed separately; experiment: Luminescence Cell-Based Dose Response HTS to Identify Inhibitors of 5'UTR Stem-Loop Driven Prion Protein mRNA Translation in H4 Neuroglioblastoma Cells. [Related pubchem assays: 1827 (Project Summary), 1813 (Primary HTS)]; assay type: functional; conditions: not given

Row | SMILES | EC50
12 | C=C(C)CN1CC[C@]23c4c5ccc(O)c4O[C@H]2c2[nH]c4ccccc4c2C[C@@]3(O)C1C5 | 109 µM (active)
13 | Nc1c(C(=O)NCc2ccc3c(c2)OCO3)nnn1CC(=O)Nc1ccc(Br)cc1 | > 120 µM (not active)
14 | Cc1ccc(NC(=O)c2ccc(S(=O)(=O)N3CCC(C)CC3)cc2)cc1 | 38.7 µM (active)
15 | CN(C)S(=O)(=O)c1ccc(Cl)c(-c2nnc3n2CCCCC3)c1 | > 120 µM (not active)
16 | Cc1nc2c(c(N3CCOCC3)n1)OCC(=O)N2 | > 120 µM (not active)
17 | Cc1cccc(NCCC#N)c1 | > 120 µM (not active)
18 | CCOC(=O)c1c(C)n[nH]c1NCc1ccccc1 | > 120 µM (not active)

system: not listed separately; experiment: inhibitors of SNCA 5'UTR-driven reporter translation, confirmation, H4 neuroglioma cells, luminescence (AID 1988); assay type: functional, cell-based; conditions: not given

Row | SMILES | EC50
19 | C=C(C)CN1CC[C@]23c4c5ccc(O)c4O[C@H]2c2[nH]c4ccccc4c2C[C@@]3(O)C1C5 | 13.3 µM (active)
20 | Nc1c(C(=O)NCc2ccc3c(c2)OCO3)nnn1CC(=O)Nc1ccc(Br)cc1 | 18.3 µM (active)
21 | Cc1ccc(NC(=O)c2ccc(S(=O)(=O)N3CCC(C)CC3)cc2)cc1 | 12 µM (active)
22 | CN(C)S(=O)(=O)c1ccc(Cl)c(-c2nnc3n2CCCCC3)c1 | > 120 µM (not active)
23 | Cc1nc2c(c(N3CCOCC3)n1)OCC(=O)N2 | 20.7 µM (active)
24 | Cc1cccc(NCCC#N)c1 | > 120 µM (not active)
25 | CCOC(=O)c1c(C)n[nH]c1NCc1ccccc1 | > 120 µM (not active)

target: T1, Streptokinase A (Streptococcus pyogenes serotype M1, UniProt P10520); experiment: S. pyogenes streptokinase expression inhibitors, potency, dose response, plasminogen activation absorbance, OD405 (AID 1914); assay type: functional, Streptococcus pyogenes M1 GAS; conditions: not given;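 note: secreted streptokinase activity via plasminogen activation per viability signal from cell pellet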
T1 sequence (P10520 whole entry): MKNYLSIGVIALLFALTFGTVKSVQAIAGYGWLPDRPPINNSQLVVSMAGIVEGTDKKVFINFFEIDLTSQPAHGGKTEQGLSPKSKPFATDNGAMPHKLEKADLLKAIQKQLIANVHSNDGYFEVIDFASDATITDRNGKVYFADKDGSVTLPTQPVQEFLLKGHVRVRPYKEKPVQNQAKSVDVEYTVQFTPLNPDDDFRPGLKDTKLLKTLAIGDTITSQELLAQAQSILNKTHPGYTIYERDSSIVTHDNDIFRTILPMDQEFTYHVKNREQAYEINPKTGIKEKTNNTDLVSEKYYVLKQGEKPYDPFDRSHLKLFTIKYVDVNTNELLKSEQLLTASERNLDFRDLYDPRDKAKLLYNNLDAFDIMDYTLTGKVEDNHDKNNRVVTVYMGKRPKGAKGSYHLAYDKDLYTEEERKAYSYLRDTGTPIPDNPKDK

Row | SMILES | EC50
26 | CCCOc1ccc(Cc2c(Cl)nc(SC)nc2OC)cc1 | 57.2 µM (active)
27 | O=C(Nc1ccn(Cc2c(F)c(F)cc(F)c2F)n1)c1ccc(COc2ccc(Cl)cc2Cl)o1 | > 150 µM (not active)
28 | O=C(Cc1csc(NC(=O)Nc2cccc(Cl)c2)n1)NCc1ccccn1 | > 150 µM (not active)
29 | COc1ccc(Br)cc1S(=O)(=O)Nc1nnc[nH]1 | > 150 µM (not active)
30 | COc1cccc(-c2cc(C(F)(F)F)nc(N3CCC(C)CC3)n2)c1 | 97.6 µM (inconclusive)

target: Large T antigen (Simian virus 40, UniProt P03070); assay type: functional, Betapolyomavirus macacae; conditions: not given;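 note: Confirmatory-stage PubChem screen for compounds that inhibit SV40 T antigen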
Sequence (P03070 whole entry): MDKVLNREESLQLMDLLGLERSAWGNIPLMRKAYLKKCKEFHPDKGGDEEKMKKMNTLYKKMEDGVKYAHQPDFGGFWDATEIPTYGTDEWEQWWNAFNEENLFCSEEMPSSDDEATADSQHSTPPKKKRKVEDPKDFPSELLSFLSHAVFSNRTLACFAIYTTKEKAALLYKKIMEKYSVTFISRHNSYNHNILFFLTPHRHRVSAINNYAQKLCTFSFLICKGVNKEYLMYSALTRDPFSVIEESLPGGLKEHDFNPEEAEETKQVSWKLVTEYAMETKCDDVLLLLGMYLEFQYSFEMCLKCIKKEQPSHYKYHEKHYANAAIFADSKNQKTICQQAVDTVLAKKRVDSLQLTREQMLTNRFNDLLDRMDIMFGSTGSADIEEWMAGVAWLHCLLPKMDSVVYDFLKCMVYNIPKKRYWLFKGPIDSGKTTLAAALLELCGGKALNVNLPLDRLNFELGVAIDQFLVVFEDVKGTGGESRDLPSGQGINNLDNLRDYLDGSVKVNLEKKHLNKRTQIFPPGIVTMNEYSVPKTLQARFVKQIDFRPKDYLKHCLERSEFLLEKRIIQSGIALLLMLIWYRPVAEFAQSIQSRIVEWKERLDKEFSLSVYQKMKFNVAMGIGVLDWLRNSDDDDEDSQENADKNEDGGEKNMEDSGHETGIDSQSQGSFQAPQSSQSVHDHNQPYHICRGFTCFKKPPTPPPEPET

Row | SMILES | IC50
31 | COc1cccc(-n2c(=O)c3ccccc3n3c(S)nnc23)c1 | 19.1 µM (active)
32 | Cc1cc(C)nc(SCc2cc(=O)c(OC(=O)c3ccc(S(=O)(=O)N4CCCC4)cc3)co2)n1 | 37.3 µM (active)
33 | CCOC(=O)c1c(C)c(C(=O)Nc2ccc(N(C)C)cc2)c(C)n1CC | 15.1 µM (active)
34 | CN(C)c1ccc(NC(=O)CN2CCN(c3ccc(F)cc3)CC2)cc1 | 5.83 µM (active)
35 | O=C(Nc1ccc(O)cc1)/C(=C/c1ccco1)NC(=O)c1ccccc1 | 11 µM (active)

system: Streptococcus; experiment: Group A Streptococcus viability loss, dose response, counter-screen for streptokinase expression inhibitor project, luminescence, BacTiterGlo (AID 1915); assay type: functional, organism-based; conditions: not given;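 note: potency for reduction of bacterial viability or growth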

Row | SMILES | EC50
36 | CCCOc1ccc(Cc2c(Cl)nc(SC)nc2OC)cc1 | > 150 µM (not active)
37 | O=C(Nc1ccn(Cc2c(F)c(F)cc(F)c2F)n1)c1ccc(COc2ccc(Cl)cc2Cl)o1 | > 150 µM (not active)
38 | O=C(Cc1csc(NC(=O)Nc2cccc(Cl)c2)n1)NCc1ccccn1 | > 150 µM (not active)
39 | COc1cccc(-c2cc(C(F)(F)F)nc(N3CCC(C)CC3)n2)c1 | 13.2 µM (active)

target: T2, Replicative DNA helicase DnaB (Mycobacterium tuberculosis, UniProt P9WMR3); experiment: DnaB intein splicing inhibitors, dose response, biochemical, cell-free fluorescence (AID 449749); assay type: functional; conditions: not given
T2 sequence (P9WMR3 whole entry): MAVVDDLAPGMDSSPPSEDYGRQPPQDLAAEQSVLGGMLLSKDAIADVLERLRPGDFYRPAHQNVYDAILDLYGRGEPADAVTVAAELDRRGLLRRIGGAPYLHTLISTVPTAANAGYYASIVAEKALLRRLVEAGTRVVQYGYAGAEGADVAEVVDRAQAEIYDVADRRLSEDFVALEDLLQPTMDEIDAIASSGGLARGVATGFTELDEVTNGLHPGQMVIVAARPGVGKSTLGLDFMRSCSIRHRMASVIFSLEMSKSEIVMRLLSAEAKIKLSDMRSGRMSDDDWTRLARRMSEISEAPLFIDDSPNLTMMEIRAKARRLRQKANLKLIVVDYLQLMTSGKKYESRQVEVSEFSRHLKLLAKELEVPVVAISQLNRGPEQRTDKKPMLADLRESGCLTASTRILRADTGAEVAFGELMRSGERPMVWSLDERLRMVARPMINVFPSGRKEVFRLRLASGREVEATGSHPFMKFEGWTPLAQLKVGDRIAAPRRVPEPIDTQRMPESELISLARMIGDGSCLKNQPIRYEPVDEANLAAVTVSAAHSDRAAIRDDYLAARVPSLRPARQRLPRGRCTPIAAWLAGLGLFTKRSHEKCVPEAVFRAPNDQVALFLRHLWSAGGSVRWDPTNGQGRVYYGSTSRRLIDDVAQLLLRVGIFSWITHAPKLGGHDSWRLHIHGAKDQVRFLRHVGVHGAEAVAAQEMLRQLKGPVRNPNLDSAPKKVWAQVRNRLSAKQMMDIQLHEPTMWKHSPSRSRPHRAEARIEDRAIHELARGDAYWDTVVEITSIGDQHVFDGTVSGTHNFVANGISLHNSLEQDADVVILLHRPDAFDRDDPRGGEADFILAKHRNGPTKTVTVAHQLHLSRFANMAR

Row | SMILES | AC50
40 | COC(=O)c1sc(-c2cccs2)cc1NC(=O)/C=C/C(=O)O | 82.9 µM (active)
41 | Cc1ccc(S(=O)(=O)N[C@@H](CCCCN)C(=O)CCl)cc1 | > 120 µM (inactive)
42 | COc1cc2c(cc1OC)C1(Nc3c-2c(Cc2ccccc2)nn3-c2ccccc2)C(=O)Nc2ccccc21 (centres undefined) | > 380 µM (inactive)
43 | COc1ccc(N=C(S)NC(NC(=O)CCl)C(Cl)(Cl)Cl)c([N+](=O)[O-])c1 (centres undefined) | 28.5 µM (active)
44 | Cc1nn(-c2ccccc2)c2c1C1(C(=O)N(C(C)C)c3ccccc31)C(C#N)=C(N)O2 (centres undefined) | 4.5 µM (active)
45 | CC(/C=C1\SC(=S)N(NC(=O)c2cccc(O)c2)C1=O)=C\c1ccccc1 | 15 µM (active)
46 | CCOC(=O)c1c(NC(=O)CSc2nnc(-c3c[nH]c4ccccc34)n2CCOC)sc2c1CCCC2 | 20.2 µM (active)
47 | CCCc1nn(C)c2c1C(c1ccncc1)C(C#N)=C(N)O2 (centres undefined) | 9.7 µM (active)
48 | Cc1ccc(NC(=O)CSc2ncc(-c3ccccc3)n2C(=O)c2ccccc2)cc1 | 2.56 µM (active)
49 | NNc1nnc(S)n1N | > 380 µM (inactive)

target: T3, Protein RecA (Mycobacterium tuberculosis, UniProt P9WHJ3); experiment: Fluorescence Cell-Free Homogeneous Dose Retest to Identify Inhibitors of RecA-Intein Splicing Activity. [Related pubchem assays (depositor defined):AID2097, AID2223, AID489010, AID492950]; assay type: functional; conditions: not given
T3 sequence (P9WHJ3 whole entry): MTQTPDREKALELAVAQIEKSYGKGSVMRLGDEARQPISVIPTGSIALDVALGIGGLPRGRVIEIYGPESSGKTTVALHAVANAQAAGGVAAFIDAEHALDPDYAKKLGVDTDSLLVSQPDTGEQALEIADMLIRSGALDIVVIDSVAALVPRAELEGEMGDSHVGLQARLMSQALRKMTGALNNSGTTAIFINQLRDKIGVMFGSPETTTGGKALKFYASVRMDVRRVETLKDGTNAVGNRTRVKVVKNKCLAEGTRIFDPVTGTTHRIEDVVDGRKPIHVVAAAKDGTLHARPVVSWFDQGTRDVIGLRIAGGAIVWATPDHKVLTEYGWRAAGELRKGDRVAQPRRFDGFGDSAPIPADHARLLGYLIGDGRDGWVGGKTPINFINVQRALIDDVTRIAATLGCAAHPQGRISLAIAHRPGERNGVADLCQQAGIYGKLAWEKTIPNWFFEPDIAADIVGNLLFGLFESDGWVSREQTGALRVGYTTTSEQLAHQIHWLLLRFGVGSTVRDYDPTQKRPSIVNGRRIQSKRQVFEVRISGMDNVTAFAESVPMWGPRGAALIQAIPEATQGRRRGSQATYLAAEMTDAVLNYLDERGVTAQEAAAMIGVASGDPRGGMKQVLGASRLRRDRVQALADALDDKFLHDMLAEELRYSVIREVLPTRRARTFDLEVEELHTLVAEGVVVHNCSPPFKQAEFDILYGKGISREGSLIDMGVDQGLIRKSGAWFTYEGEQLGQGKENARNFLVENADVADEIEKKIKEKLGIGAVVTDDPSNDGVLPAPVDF

Row | SMILES | EC50
50 | COC(=O)c1sc(-c2cccs2)cc1NC(=O)/C=C/C(=O)O | 15.2 µM (active)
51 | Cc1ccc(S(=O)(=O)N[C@@H](CCCCN)C(=O)CCl)cc1 | 12.6 µM (active)
52 | COc1cc2c(cc1OC)C1(Nc3c-2c(Cc2ccccc2)nn3-c2ccccc2)C(=O)Nc2ccccc21 (centres undefined) | > 380 µM (inactive)
53 | COc1ccc(N=C(S)NC(NC(=O)CCl)C(Cl)(Cl)Cl)c([N+](=O)[O-])c1 (centres undefined) | 3.31 µM (active)
54 | Cc1nn(-c2ccccc2)c2c1C1(C(=O)N(C(C)C)c3ccccc31)C(C#N)=C(N)O2 (centres undefined) | 2.88 µM (active)
55 | CC(/C=C1\SC(=S)N(NC(=O)c2cccc(O)c2)C1=O)=C\c1ccccc1 | 25.2 µM (active)
56 | CCOC(=O)c1c(NC(=O)CSc2nnc(-c3c[nH]c4ccccc34)n2CCOC)sc2c1CCCC2 | > 380 µM (inactive)
57 | CCCc1nn(C)c2c1C(c1ccncc1)C(C#N)=C(N)O2 (centres undefined) | 3.79 µM (active)
58 | Cc1ccc(NC(=O)CSc2ncc(-c3ccccc3)n2C(=O)c2ccccc2)cc1 | 1.77 µM (active)
59 | NNc1nnc(S)n1N | 86.4 µM (active)
